From PMC4445981, “The glutamate transport inhibitor DL-Threo-β-Benzyloxyaspartic acid (DL-TBOA) differentially affects SN38- and oxaliplatin-induced death of drug-resistant colorectal cancer cells” (BMC Cancer, 2015)

Columns and labels:
Format in all cases: cell-based, human
[1] = test system: [3H]-D-Asp uptake (glutamate transporter activity) in HCT116-PAR cells; experiment: [3H]-D-Asp uptake assay, HCT116-PAR; settings: HCT116-PAR, 100 nM [3H]-D-Asp, 6 min, 37 °C
Procedure: (§1) We therefore next determined glutamate transporter activity (as uptake of the substrate [^3H]-D-Asp following a 6-min incubation in buffer supplemented with a tracer concentration of 100 nM [^3H]-D-Asp). […] To determine which transporter(s) was responsible for the [^3H]-D-Asp uptake, we assessed the effect of DL-TBOA, a nonselective inhibitor of EAATs, and UCPH-101, a specific SLC1A3 inhibitor [16, 28, 29]. […] Basal [^3H]-D-Asp uptake was decreased by about 60 % in SN38-resistant compared to parental HCT116 cells, whereas that in SN38-resistant LoVo cells was nearly tripled compared to parental LoVo cells.
(§2) The [^3H]-D-Asp uptake assay was performed essentially as in [30]. Briefly, cells were split into poly-D-lysine-coated white 96-well plates (PerkinElmer). A similar number of cells were seeded for HCT116 parental, HCT116-SN38 and HCT116-Oxa cell lines (7 × 10^4 cells/well) and LoVo parental, Lovo-SN38 and Lovo-Oxa cell lines (6 × 10^4 cells/well). 16–24 h later, culture medium was aspirated, and cells were washed once with 100 μl assay buffer (Hank’s Buffered Saline Solution supplemented with 20 mM HEPES, 1 mM CaCl2 and 1 mM MgCl2, pH 7.4). 50 μl assay buffer supplemented with 100 nM [^3H]-D-Asp and test compounds as indicated was added, and the plate was incubated at 37 °C for 6 min. Non-specific [^3H]-D-Asp uptake was determined in wells with 3 mM L-glutamate. The assay mixture was quickly removed, and wells were washed with 2 × 100 μl ice-cold assay buffer, followed by 150 μl Microscint™20 scintillation fluid (PerkinElmer). The plate was shaken for 1 h and counted in a Wallac 1450 MicroBeta Trilux scintillation counter (GMI, Ramsey, MN).

[2] = test system: [3H]-D-Asp uptake (glutamate transporter activity) in HCT116-SN38 cells; experiment: [3H]-D-Asp uptake assay, HCT116-SN38; settings: HCT116-SN38, 100 nM [3H]-D-Asp, 6 min, 37 °C
Procedure: as §1, §2

[3] = test system: [3H]-D-Asp uptake (glutamate transporter activity) in LoVo-PAR cells; experiment: [3H]-D-Asp uptake assay, LoVo-PAR; settings: LoVo-PAR, 100 nM [3H]-D-Asp, 6 min, 37 °C
Procedure: as §1, §2

[4] = test system: [3H]-D-Asp uptake in HCT116 and LoVo cells (parental and resistant); experiment: [3H]-D-Asp uptake assay, summary over cell lines; settings: all cell lines; read-out: IC50 values, inhibition of basal [3H]-D-Asp uptake
Procedure: as §1, §2

parental LoVo cells = experiment: MTT viability assay, parental LoVo cells; settings: 350 μM DL-TBOA, 48 h
Procedure: Fig. 2 DL-TBOA augments SN38-induced death in SN38-resistant cells, but protects oxaliplatin-resistant cells from oxaliplatin-induced death. Parental and drug-resistant HCT116 and LoVo cell lines seeded in 96-well dishes were exposed to SN38 (0.1 or 0.8 μM) or oxaliplatin (0.8 or 20 μM), alone or in combination with 70 or 350 μM DL-TBOA as indicated, for 48 h. Viability was assessed by MTT assay. a-b Parental HCT116 cells, (c) SN38 resistant HCT116 cells, (d) Oxaliplatin-resistant HCT116 cells, (e-f) Parental LoVo cells, (g) SN38 resistant LoVo cells, (h) Oxaliplatin-resistant LoVo cells. Data are means with S.E.M. error bars of 3 independent experiments. *) p < 0.05, **) p < 0.01, ***) p < 0.001 compared to the control group without drug or TBOA treatment; #) p < 0.05 compared to controls without TBOA treatment. One-way ANOVA followed by Dunnett post-test
Cells were seeded at appropriate density (LoVo 10,000, and HCT116 5000 cells /100 μl) in growth medium in 96-well plates. Next day, cells were treated with inhibitors and/or chemotherapy in a total volume of 200 μl in growth medium and incubated for 48 h at 37 °C, 5 % CO2. […] Absorbance was measured in an ELISA plate reader (Thermo Scientific MultiScan FC) at 550 nm. Data were background subtracted and % viability relative to controls calculated.

PARP-1 cleavage = PARP-1 cleavage by Western blotting; settings: DL-TBOA; HCT116 and LoVo cells
Procedure: Cells were grown to a confluence of 60-80 % and treated with chemotherapy, siRNA- or plasmid transfection as indicated. Cells were washed once in PBS, lysed in lysis buffer (1 % SDS, 0.1 M Tris pH 7.5, and 1 mM Na3VO4), sonicated, and protein content determined (DC assay, BioRad). Lysates were mixed 2:1with NuPage LDS sample buffer (Invitrogen). SDS-PAGE was carried out in NOVEX chambers with NuPAGE 10 % Bis-Tris gels under reducing and denaturing conditions, using BenchMark protein ladder (Invitrogen), and 15 μg protein per lane. Proteins were transferred to PVDF membranes, which were Ponceau S stained, blocked for 1 h at 37 °C in 5 % nonfat dry milk in TBST (0.01 M Tris/HCl, 0.15 M NaCl, 0.1 % Tween 20, pH 7.4), incubated overnight at 4 °C with primary antibodies diluted in blocking buffer, washed in TBST, incubated with secondary antibodies for 1 h, washed in TBST, and developed using BCIP/NBT (KPL). Bands were scanned and quantified using UN-SCAN-IT (Silk Scientific).
Supplementary file 12885_2015_1405_MOESM3_ESM.tiff: Additional file 3: Figure S3. […] Equal amounts of protein per lane were separated by SDS-PAGE and the protein levels of p21, and PARP-1 (full-length and cleaved, the latter indicated by arrowheads) were determined by Western blotting. […] Bottom: Densitometric quantifications based on 3 independent experiments per condition. […]

[5] = read-out: IC50, [3H]-D-Asp uptake

With `N[C@H](C(=O)O)[C@H](OCc1ccccc1)C(=O)O` (racemic) [TBOA, DL-Threo-β-Benzyloxyaspartic acid] the “pIC50 ± S.E.M., [3H]-D-Asp uptake” value [1] was 5.75 ± 0.03, the IC50 [1, 5] was 1.8 µM and the “pIC50 ± S.E.M., [3H]-D-Asp uptake” value [2] was 5.83 ± 0.08. The IC50 [2, 5] was 1.5 µM, the “pIC50 ± S.E.M., [3H]-D-Asp uptake” value [3] was 5.84 ± 0.03 and the IC50 [3, 5] was 1.4 µM. For the same molecule, the IC50 [4] was about 2 µM, the “effect on loss of viability induced by 0.8 μM oxaliplatin” value (parental LoVo cells) was “essentially abolished the loss of viability” and the “effect on cellular level of cleaved PARP-1” value (PARP-1 cleavage) was “did not significantly alter”.
